SMILES strings stand for the structures.

Data set [1] can be described thus: in vivo. The conditions noted are these: C57BL/6, mouse, kidney, sc, 5 mg/kg.
A short description of data set [2]: in vivo. The conditions noted are these: C57BL/6, mouse, kidney, sc, 5 mg/kg. The source holds these as a separate data set.

In turn, `Cc1ccccc1C(=O)Nc1ccc(C(=O)N2CCCC(O)c3cc(Cl)ccc32)c(C)c1` (configuration not stated) [TOLVAPTAN] registered a concentration at 0.5 h in “in vivo [1]” of 6100 ng/g. For the same compound, the concentration at 1 h in the data set “in vivo [2]” stood at 3900 ng/g.

For the origin of these results see ChEMBL document CHEMBL5143707, “Benzodiazepine Derivatives as Potent Vasopressin V2 Receptor Antagonists for the Treatment of Autosomal Dominant Kidney Disease” (J Med Chem, 2022).
